Measured values as given in PubChem BioAssay (NCI).
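Cultured in 96-well plates, cells were exposed to test compound for 48 hours across five concentrations. GI50: concentration for 50% inhibition of growth. TGI marks complete inhibition of growth.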 Where a SMILES comes first, the peptide text is derived from it. [ ]: non-standard residue; d: D form. ξ: configuration not given here. Pentanoyl(2-O,4-OH,5-Cl) = O=C(O)C(O)CC(O)CCl; Ile(3ξ) = CCC(C)[C@H](N)C(=O)O; NMeV = CN[C@H](C(=O)O)C(C)C; NMeA = CN[C@@H](C)C(=O)O; βAla = NCCC(=O)O

Key:
Assay in all cases: NCI-60 cell line screen, 48 h
CCRF-CEM leukemia = test system: CCRF-CEM leukemia
COLO 205 colon = test system: COLO 205 colon
EKVX NSCLC = test system: EKVX NSCLC
HL-60(TB) leukemia = test system: HL-60(TB) leukemia
HOP-18 NSCLC = test system: HOP-18 NSCLC
SF-539 CNS = test system: SF-539 CNS
SN12C renal = test system: SN12C renal
SNB-75 CNS = test system: SNB-75 CNS
XF 498 CNS = test system: XF 498 CNS
MDA-MB-231 breast = test system: MDA-MB-231 breast

Q: Which TGI (CCRF-CEM leukemia) does the source give for Cc1cccc(-c2nc(=S)[nH][nH]2)c1 here?
A: > 100 µM

Q: And the TGI (COLO 205 colon)?
A: > 100 µM

Q: What about the TGI (EKVX NSCLC) of the same compound?
A: > 100 µM

Q: And the TGI (HL-60(TB) leukemia)?
A: > 100 µM

Q: And the TGI (HOP-18 NSCLC)?
A: > 100 µM

Q: What about the TGI (SF-539 CNS) of the same compound?
A: > 100 µM

Q: And the TGI (SN12C renal)?
A: > 100 µM

Q: What about the TGI (SNB-75 CNS) of the same compound?
A: > 100 µM

Q: And the TGI (XF 498 CNS)?
A: > 100 µM

Q: Which results are given for CCN(Cc1ccccc1)c1ccc(/C=C2\COc3ccccc3C2=O)cc1?
A: GI50 (CCRF-CEM leukemia): 73.5 µM; TGI (CCRF-CEM leukemia): > 1000 µM; GI50 (COLO 205 colon): > 1000 µM; TGI (COLO 205 colon): > 1000 µM; GI50 (EKVX NSCLC): 538 µM; TGI (EKVX NSCLC): > 1000 µM; GI50 (HL-60(TB) leukemia): 221 µM; TGI (HL-60(TB) leukemia): > 1000 µM; GI50 (MDA-MB-231 breast): 896 µM; TGI (MDA-MB-231 breast): > 1000 µM; GI50 (SF-539 CNS): > 1000 µM; TGI (SF-539 CNS): > 1000 µM; GI50 (SN12C renal): > 1000 µM; TGI (SN12C renal): > 1000 µM; GI50 (SNB-75 CNS): > 1000 µM; TGI (SNB-75 CNS): > 1000 µM

Q: With O=C1c2ccccc2C(=O)N1C/C=N/NS(=O)(=O)c1cccc([N+](=O)[O-])c1 as the compound, how does the TGI (CCRF-CEM leukemia) read?
A: > 100 µM

Q: What about the TGI (COLO 205 colon) of the same compound?
A: > 100 µM

Q: What about the TGI (EKVX NSCLC) of the same compound?
A: > 100 µM

Q: What about the TGI (HL-60(TB) leukemia) of the same compound?
A: > 100 µM

Q: And the TGI (SF-539 CNS)?
A: > 100 µM

Q: And the TGI (SN12C renal)?
A: > 100 µM

Q: And the TGI (SNB-75 CNS)?
A: > 100 µM

Q: And the TGI (XF 498 CNS)?
A: > 100 µM

Q: Which results are given for O=C1/C(=C/c2cc(O)c(O)c(O)c2)Oc2cc(O)cc(OC3OC(CO)C(O)C(O)C3O)c21 (configuration not stated)?
A: TGI (CCRF-CEM leukemia): 44.5 µM; TGI (COLO 205 colon): 54.1 µM; TGI (EKVX NSCLC): > 100 µM; TGI (HL-60(TB) leukemia): 43.1 µM; TGI (HOP-18 NSCLC): > 100 µM; TGI (SF-539 CNS): > 100 µM; TGI (SN12C renal): 33 µM; TGI (SNB-75 CNS): > 100 µM

Q: What does the source list for CCC(C)[C@@H]1NC(=O)[C@@H]2CCCN2C(=O)C(CC(O)CCl)OC(=O)CCNC(=O)[C@H](C)N(C)C(=O)[C@H](C(C)C)N(C)C1=O (some centres not stated) (cyclo([Ile(3ξ)][NMeV][NMeA][βAla][Pentanoyl(2-O,4-OH,5-Cl)]P))?
A: TGI (CCRF-CEM leukemia): > 100 µM; TGI (COLO 205 colon): > 31.6 µM; TGI (EKVX NSCLC): > 100 µM; TGI (HL-60(TB) leukemia): > 100 µM; TGI (MDA-MB-231 breast): > 100 µM; TGI (SF-539 CNS): > 100 µM; TGI (SN12C renal): > 100 µM; TGI (SNB-75 CNS): > 100 µM

Q: What does the source list for [N-]=[N+]=NC1C(Cl)C(=O)NC(=O)N1[C@H]1C[C@H](O)[C@@H](CO)O1 (some centres not stated)?
A: GI50 (CCRF-CEM leukemia): 26.3 µM; TGI (CCRF-CEM leukemia): > 100 µM; TGI (COLO 205 colon): > 100 µM; TGI (EKVX NSCLC): > 100 µM; TGI (HL-60(TB) leukemia): > 100 µM; TGI (SF-539 CNS): > 100 µM; TGI (SN12C renal): > 100 µM; TGI (SNB-75 CNS): > 100 µM; TGI (XF 498 CNS): > 100 µM

Q: Cc1ccc(NC(=O)c2ccoc2)cc1-c1ccc(C(=O)NCC2CC2)cc1 was tested. Which GI50 (CCRF-CEM leukemia) did it give?
A: > 25 µM

Q: And the TGI (CCRF-CEM leukemia)?
A: > 25 µM

Q: And the GI50 (COLO 205 colon)?
A: > 25 µM

Q: What about the TGI (COLO 205 colon) of the same compound?
A: > 25 µM

Q: What about the GI50 (EKVX NSCLC) of the same compound?
A: > 13.5 µM

Q: What about the TGI (EKVX NSCLC) of the same compound?
A: > 25 µM

Q: And the GI50 (HL-60(TB) leukemia)?
A: > 20.4 µM

Q: What about the TGI (HL-60(TB) leukemia) of the same compound?
A: > 25 µM

Q: And the GI50 (MDA-MB-231 breast)?
A: > 22.6 µM

Q: And the TGI (MDA-MB-231 breast)?
A: > 25 µM

Q: What about the GI50 (SF-539 CNS) of the same compound?
A: > 25 µM

Q: And the TGI (SF-539 CNS)?
A: > 25 µM

Q: And the GI50 (SN12C renal)?
A: > 25 µM

Q: What about the TGI (SN12C renal) of the same compound?
A: > 25 µM

Q: What about the GI50 (SNB-75 CNS) of the same compound?
A: > 25 µM

Q: What about the TGI (SNB-75 CNS) of the same compound?
A: > 25 µM

Q: With CC(C)N1CCOC(c2ccc(O)c(O)c2)C1 (configuration not stated) as the compound, how does the TGI (CCRF-CEM leukemia) read?
A: > 100 µM

Q: And the TGI (COLO 205 colon)?
A: > 100 µM

Q: What about the TGI (EKVX NSCLC) of the same compound?
A: > 100 µM

Q: What about the TGI (HL-60(TB) leukemia) of the same compound?
A: > 100 µM

Q: And the TGI (SN12C renal)?
A: > 100 µM

Q: And the TGI (SNB-75 CNS)?
A: > 100 µM

Q: What about the TGI (XF 498 CNS) of the same compound?
A: > 100 µM

Q: How did the GI50 (CCRF-CEM leukemia) turn out when CC(C)Cn1cnc2c(N)nc3ccccc3c21 was run?
A: > 49 µM

Q: And the TGI (CCRF-CEM leukemia)?
A: > 100 µM

Q: What about the GI50 (COLO 205 colon) of the same compound?
A: 20.7 µM

Q: And the TGI (COLO 205 colon)?
A: > 88.2 µM

Q: What about the GI50 (EKVX NSCLC) of the same compound?
A: 26.2 µM

Q: And the TGI (EKVX NSCLC)?
A: > 100 µM

Q: What about the GI50 (HL-60(TB) leukemia) of the same compound?
A: > 47.7 µM

Q: What about the TGI (HL-60(TB) leukemia) of the same compound?
A: > 100 µM

Q: What about the GI50 (MDA-MB-231 breast) of the same compound?
A: 46 µM

Q: What about the TGI (MDA-MB-231 breast) of the same compound?
A: > 100 µM

Q: And the GI50 (SF-539 CNS)?
A: 42.9 µM

Q: What about the TGI (SF-539 CNS) of the same compound?
A: > 100 µM

Q: And the GI50 (SN12C renal)?
A: 78.8 µM

Q: What about the TGI (SN12C renal) of the same compound?
A: > 100 µM

Q: What about the GI50 (SNB-75 CNS) of the same compound?
A: 41.4 µM

Q: What about the TGI (SNB-75 CNS) of the same compound?
A: > 100 µM
